According to publication PMC8620390, “New Multi-Targeted Antiproliferative Agents: Design and Synthesis of IC261-Based Oxindoles as Potential Tubulin, CK1 and EGFR Inhibitors” (Pharmaceuticals, 2021):
Several values for one entry are separate records, joined by “and”; a condition that tells them apart may be missing. Equal entries are not always repeated. Marks after values point to notes of the source that are not given here.

What was measured:
MCF-7 = assay: Two-dose antiproliferative screening, SRB assay, MCF-7; assay type: cell-based; conditions: triplicates; for Growth Inhibition (%) MCF-7 1 μM Average: 72 h; for inhibition at 1 µM / inhibition at 10 µM: Homo sapiens, MCF7, 72 h; for inhibition at 1 µM: read-out: Growth Inhibition (%) MCF-7 1 μM Average; for inhibition at 10 µM: read-out: Growth Inhibition (%) MCF-7 10 μM Average
Experimental: MCF-7(breast adenocarcinoma), PC-3 (prostate cancer) and COLO-205 (colorectal cancer) were obtained from Nawah Scientific inc., (Mokatam, Cairo, Egypt). Cells were maintained in Dulbecco’s Modified Eagle’s media (DMEM media) supplemented with […] of streptomycin, 100 units/mL of penicillin and 10% of heat-inactivated fetal bovine serum in humidified, 5% (v/v) CO2 atmosphere at 37 °C.
(§1) Cell viability was assessed by the sulforhodamine B (SRB) assay. Aliquots of cell suspension (5 × 10^3 cells, 100 μL) were transferred into 96 well plates and incubated in complete media for 24 h. Cells were treated with another aliquot media (100 μL) containing compounds 3a–f, 4a–f, 6a–f, 7a–f, 9a–b at concentrations of 1 and 10 μM). After 72 h of drug exposure, cells were fixed by replacing media with trichloroacetic acid (TCA, 10%, 150 μL) and incubated at 4 °C for 1 h. The TCA solution was removed, and the cells were washed five times with distilled water. Aliquots of SRB solution (0.4%w/v, 70 μL) were added and incubated in a dark place at room temperature for 10 min. Plates were washed three times with 1% acetic acid and allowed to air dry overnight. Then, a solution of TRIS base and TRIS HCl (TRIS buffer, 10 mM, 150 μL) was added to dissolve protein bound SRB stain. The absorbance was measured at 540 nm using BMGLABTECH®–FLUOstar omega micro-plate reader (Ortenberg, Germany).

COLO-205 = assay: IC50 against COLO-205, SRB assay; assay type: cell-based; conditions: Homo sapiens, 0.001–100 μM
Experimental: as §1
The same procedures used to screen two-dose anticancer activities were applied in determining IC50 values against COLO-205 using SRB assay. Cells were maintained at Roswell Park Memorial Institute media (RPMI media). The test was performed using 0.001–100 μM of compounds 4a (IC261), 4b, 4d, 4e, 6e and 6f. IC50 values were calculated using the equation for Boltzman sigmoidal concentration–response curve using the nonlinear regression fitting models by GraphPad, Prism version 5 (GraphPad Software Inc., La Jolla, CA, USA).

EGFR = molecular target: T1, EGFR (Homo sapiens, UniProt P00533); assay: EGFR kinase assay kit (Kinase-Glo MAX); assay type: biochemical; conditions: EGFR-TK kinase kit; read-out: EGFR Inhibition IC50 (converted)
T1 construct: enough purified recombinant EGFR enzyme, EGFR substrate, ATP, and kinase assay buffer; purchased Sigma Aldrich
Experimental: The EGFR Kinase Assay Kit (Sigma Aldrich, St. Louis, […], USA) is designed to measure EGFR Kinase activity for screening and profiling applications using Kinase-Glo® MAX as a detection reagent. The EGFR Kinase Assay Kit (Sigma Aldrich, St. Louis, […], USA) comes in a convenient 96-well format, with enough purified recombinant EGFR enzyme, EGFR substrate, ATP, and kinase assay buffer for 100 enzyme reactions. The master mixture (25 μL per well) was prepared out of Kinase assay buffer (6 μL), ATP (500 μM, 1 μL), PTK substrate (50×, 1 μL) and water (17 μL) and added to each well. Inhibitor solution was made by dissolving 4b in a liquid labelled” inhibitor buffer”. An inhibitor solution (5 μL) was then added to each well, labelled as “Test Inhibitor”. For “Positive Control” and “Blank”, add 5 μL inhibitor buffer). EGFR was thawed on ice. Its tube was spun briefly to recover the full content of the tube. The enzyme was diluted with 1× Kinase assay buffer enzyme to 1 ng/μL. The reaction was initiated by adding 20 μL of diluted EGFR enzyme to the wells designated “Positive Control” and “Test Inhibitor Control”. The plate was incubated at 30 °C for 40 min. After the 40-min reaction, the Kinase-Glo Max (50 μL) reagent was added to each well. The plate was covered with aluminum foil, incubated at room temperature for 15 min and the luminescence was measured using the microplate reader.

T1 sequence (P00533 25-1210): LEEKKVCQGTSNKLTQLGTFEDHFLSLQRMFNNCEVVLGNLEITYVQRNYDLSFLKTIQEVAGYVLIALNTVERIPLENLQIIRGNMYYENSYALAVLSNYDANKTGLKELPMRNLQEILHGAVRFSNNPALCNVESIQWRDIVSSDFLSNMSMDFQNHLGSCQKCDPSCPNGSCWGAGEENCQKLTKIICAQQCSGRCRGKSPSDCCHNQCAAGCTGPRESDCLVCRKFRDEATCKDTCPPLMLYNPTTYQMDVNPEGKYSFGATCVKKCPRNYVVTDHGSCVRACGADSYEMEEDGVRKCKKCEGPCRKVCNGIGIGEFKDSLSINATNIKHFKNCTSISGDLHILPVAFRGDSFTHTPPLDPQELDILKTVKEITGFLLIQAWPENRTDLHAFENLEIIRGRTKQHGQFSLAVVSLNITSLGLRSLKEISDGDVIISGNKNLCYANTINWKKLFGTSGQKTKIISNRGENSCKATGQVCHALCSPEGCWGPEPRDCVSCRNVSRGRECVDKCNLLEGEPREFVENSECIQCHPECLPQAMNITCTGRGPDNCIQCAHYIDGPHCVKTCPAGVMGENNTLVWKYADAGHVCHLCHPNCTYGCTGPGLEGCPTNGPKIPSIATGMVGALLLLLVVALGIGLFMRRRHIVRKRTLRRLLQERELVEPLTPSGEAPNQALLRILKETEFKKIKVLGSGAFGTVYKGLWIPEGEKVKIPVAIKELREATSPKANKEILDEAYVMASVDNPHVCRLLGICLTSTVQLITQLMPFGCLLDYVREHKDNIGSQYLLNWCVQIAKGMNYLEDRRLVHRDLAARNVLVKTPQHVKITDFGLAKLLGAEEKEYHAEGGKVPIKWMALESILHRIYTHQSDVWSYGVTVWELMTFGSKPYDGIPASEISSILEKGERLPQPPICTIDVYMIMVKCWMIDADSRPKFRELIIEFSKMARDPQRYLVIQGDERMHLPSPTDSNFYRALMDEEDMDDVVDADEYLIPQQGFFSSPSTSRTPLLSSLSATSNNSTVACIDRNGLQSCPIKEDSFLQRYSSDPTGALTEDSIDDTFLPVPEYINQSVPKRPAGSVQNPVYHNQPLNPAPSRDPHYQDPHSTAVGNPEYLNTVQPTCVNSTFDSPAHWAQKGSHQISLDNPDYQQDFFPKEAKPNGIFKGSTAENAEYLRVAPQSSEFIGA

| SMILES | Growth Inhibition (%) MCF-7 1 μM Average (MCF-7) | inhibition at 1 µM (MCF-7) [%] | inhibition at 10 µM (MCF-7) [%] | IC50 (COLO-205) [nM] | IC50 (EGFR) |
| --- | --- | --- | --- | --- | --- |
| COc1cc(OC)c(/C=C2/C(=O)Nc3ccccc32)c(OC)c1 [Compound 4a, (E)-3-(2,4,6-trimethoxybenzylidene)indolin-2-one, reference compound] | 43.49 ^c % | 44 | 58.9 | 200 | 321 nM and 340 nM |
| COc1cc(OC)c(/C=C2/C(=O)Nc3cc(Cl)ccc32)c(OC)c1 [Compound 4b, (E)-6-chloro-3-(2,4,6-trimethoxybenzylidene)indolin-2-one] | 45.3% | 46 | 59.1 | 200 | 549 nM |
